From ChEMBL document CHEMBL2150897, “Discovery of DS-8108b, a Novel Orally Bioavailable Renin Inhibitor” (ACS Med Chem Lett, 2012)
Positions count from the first letter of the chain named.

Key:
[1] = system: Cynomolgus monkey; experiment: Ex vivo inhibition of plasma renin activity in po dosed cynomolgus monkey administered after furosemide treatment measured up to 24 hrs; assay type: functional, organism-based; conditions: Macaca fascicularis
[2] = Half life in cynomolgus monkey at 10 mg/kg, po; assay type: ADME, organism-based, Macaca fascicularis; design: dose 10 mg/kg, route oral; conditions: in vivo
[3] = Inhibition of human pepsin
[4] = Tmax in cynomolgus monkey at 10 mg/kg, po; assay type: ADME, organism-based, Macaca fascicularis; design: dose 10 mg/kg, route oral; conditions: in vivo
[5] = system: Cynomolgus monkey; experiment: Cardiotoxicity in telemetered cynomolgus monkey assessed as change in QTc interval at 1000 mg/kg, po administered as single dose measured up to 24 hrs; assay type: toxicity, organism-based, Macaca fascicularis; design: dose 1000 mg/kg, route oral; conditions: in vivo
[6] = AUC ( 0 to t) in cynomolgus monkey at 3 mg/kg, po; assay type: ADME, organism-based, Macaca fascicularis; design: dose 3 mg/kg, route oral; conditions: plasma
[7] = biological target: T1, Renin (Macaca fascicularis, UniProt Q6DLS0); experiment: Inhibition of cynomolgus monkey plasma renin activity after 60 mins by competitive RIA
T1 sequence (Q6DLS0 whole entry): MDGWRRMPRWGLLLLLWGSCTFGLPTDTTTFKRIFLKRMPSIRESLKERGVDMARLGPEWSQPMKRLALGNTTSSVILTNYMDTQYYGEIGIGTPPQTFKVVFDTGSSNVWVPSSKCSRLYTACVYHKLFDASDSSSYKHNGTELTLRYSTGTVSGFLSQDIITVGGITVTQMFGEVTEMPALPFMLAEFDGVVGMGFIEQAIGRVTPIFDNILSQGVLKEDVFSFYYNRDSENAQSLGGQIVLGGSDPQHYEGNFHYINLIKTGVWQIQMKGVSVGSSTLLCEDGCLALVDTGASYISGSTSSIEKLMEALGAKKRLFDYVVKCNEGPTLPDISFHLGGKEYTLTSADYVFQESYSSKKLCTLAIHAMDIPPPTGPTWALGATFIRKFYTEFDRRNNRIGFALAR

[8] = AUC ( 0 to t) in cynomolgus monkey at 3 mg/kg, iv; assay type: ADME, organism-based, Macaca fascicularis; design: dose 3 mg/kg, route intravenous; conditions: plasma
[9] = Inhibition of Cytochrome P450; assay type: ADME
[10] = Tmax in cynomolgus monkey at 3 mg/kg, po; assay type: ADME, organism-based, Macaca fascicularis; design: dose 3 mg/kg, route oral; conditions: in vivo
[11] = Oral bioavailability in cynomolgus monkey at 3 mg/kg; assay type: ADME, organism-based, Macaca fascicularis; conditions: in vivo
[12] = biological target: Sodium channel protein type 5 subunit alpha (Homo sapiens, UniProt Q14524); experiment: Inhibition of human Nav 1.5 at 100 uM
Sodium channel protein type 5 subunit alpha, sequence (Q14524 whole entry): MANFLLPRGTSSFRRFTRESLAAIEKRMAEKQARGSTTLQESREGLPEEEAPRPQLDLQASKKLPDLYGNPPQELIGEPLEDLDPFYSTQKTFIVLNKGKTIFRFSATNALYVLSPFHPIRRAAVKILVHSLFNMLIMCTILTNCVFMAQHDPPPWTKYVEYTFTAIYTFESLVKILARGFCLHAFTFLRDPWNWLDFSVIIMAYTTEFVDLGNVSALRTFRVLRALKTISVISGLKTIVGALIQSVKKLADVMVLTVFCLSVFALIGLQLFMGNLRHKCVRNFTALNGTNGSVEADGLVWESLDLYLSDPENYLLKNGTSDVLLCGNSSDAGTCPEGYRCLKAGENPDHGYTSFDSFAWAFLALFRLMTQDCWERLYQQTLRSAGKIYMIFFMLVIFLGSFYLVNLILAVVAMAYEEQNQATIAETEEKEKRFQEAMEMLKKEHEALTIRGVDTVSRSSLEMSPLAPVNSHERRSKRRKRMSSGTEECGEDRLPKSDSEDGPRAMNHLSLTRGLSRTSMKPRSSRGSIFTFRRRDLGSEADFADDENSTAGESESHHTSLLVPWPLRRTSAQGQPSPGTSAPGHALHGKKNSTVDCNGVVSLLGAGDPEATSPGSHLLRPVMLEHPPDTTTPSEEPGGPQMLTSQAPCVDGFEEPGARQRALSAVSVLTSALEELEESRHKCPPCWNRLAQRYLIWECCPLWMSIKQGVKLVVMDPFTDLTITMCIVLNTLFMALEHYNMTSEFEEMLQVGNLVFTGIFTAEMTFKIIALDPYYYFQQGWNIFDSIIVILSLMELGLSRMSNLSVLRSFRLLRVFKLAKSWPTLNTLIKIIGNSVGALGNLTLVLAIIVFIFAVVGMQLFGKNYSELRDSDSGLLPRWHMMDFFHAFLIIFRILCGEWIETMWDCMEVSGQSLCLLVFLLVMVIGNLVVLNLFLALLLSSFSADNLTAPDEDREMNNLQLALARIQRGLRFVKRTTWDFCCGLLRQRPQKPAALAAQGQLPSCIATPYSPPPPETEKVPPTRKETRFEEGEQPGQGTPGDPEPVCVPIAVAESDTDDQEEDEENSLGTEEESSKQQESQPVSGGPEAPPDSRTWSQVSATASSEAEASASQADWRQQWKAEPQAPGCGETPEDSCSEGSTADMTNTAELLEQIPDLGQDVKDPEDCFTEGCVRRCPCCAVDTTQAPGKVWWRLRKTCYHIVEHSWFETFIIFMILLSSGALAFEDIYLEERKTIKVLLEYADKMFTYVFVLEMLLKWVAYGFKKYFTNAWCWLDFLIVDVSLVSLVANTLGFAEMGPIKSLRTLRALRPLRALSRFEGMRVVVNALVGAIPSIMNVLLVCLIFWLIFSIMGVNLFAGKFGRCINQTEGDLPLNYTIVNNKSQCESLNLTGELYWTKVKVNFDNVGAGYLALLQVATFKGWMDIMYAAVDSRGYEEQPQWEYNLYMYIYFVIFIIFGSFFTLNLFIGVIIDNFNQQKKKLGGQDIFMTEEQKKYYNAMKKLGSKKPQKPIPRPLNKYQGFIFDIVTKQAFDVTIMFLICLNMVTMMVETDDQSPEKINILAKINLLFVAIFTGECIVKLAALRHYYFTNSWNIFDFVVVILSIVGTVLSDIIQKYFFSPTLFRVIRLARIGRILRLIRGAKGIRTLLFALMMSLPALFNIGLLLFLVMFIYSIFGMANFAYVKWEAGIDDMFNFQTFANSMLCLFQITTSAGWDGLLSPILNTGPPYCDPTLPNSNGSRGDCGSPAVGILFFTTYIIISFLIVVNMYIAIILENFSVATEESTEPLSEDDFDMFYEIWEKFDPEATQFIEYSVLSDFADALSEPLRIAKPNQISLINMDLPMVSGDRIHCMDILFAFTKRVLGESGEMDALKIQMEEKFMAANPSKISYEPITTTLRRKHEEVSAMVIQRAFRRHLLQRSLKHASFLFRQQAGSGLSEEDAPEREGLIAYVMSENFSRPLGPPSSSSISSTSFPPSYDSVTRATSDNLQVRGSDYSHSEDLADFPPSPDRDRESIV

[13] = Inhibition of HIV protease; design: species or system Human immunodeficiency virus
[14] = Half life in cynomolgus monkey at 3 mg/kg, po; assay type: ADME, organism-based, Macaca fascicularis; design: dose 3 mg/kg, route oral; conditions: in vivo
[15] = AUC ( 0 to t) in cynomolgus monkey at 10 mg/kg, po; assay type: ADME, organism-based, Macaca fascicularis; design: dose 10 mg/kg, route oral; conditions: plasma
[16] = biological target: T2, Cathepsin E (Homo sapiens, UniProt P14091); experiment: Inhibition of human cathepsin E
T2 sequence (P14091 whole entry): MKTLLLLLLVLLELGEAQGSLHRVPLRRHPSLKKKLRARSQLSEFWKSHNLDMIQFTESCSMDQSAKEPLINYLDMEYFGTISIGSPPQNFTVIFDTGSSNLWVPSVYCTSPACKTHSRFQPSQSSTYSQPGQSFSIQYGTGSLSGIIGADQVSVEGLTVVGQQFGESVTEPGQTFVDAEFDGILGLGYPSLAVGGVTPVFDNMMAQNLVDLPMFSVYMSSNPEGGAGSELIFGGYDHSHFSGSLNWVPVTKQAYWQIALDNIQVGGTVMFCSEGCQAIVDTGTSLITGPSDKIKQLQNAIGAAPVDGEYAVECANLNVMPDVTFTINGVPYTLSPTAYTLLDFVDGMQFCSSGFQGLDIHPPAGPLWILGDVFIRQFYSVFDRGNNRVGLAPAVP

[17] = Cmax in cynomolgus monkey at 10 mg/kg, po; assay type: ADME, organism-based, Macaca fascicularis; design: dose 10 mg/kg, route oral; conditions: in vivo
[18] = Volume of distribution at steady state in cynomolgus monkey at 3 mg/kg, iv; assay type: ADME, organism-based, Macaca fascicularis; design: dose 3 mg/kg, route intravenous; conditions: in vivo, read-out: Vdss
[19] = system: Cynomolgus monkey; experiment: Antihypertensive activity in po dosed cynomolgus monkey assessed as reduction in mean arterial pressure administered as single dose 3 days prior to furosemide treatment measured up to 12 hrs; assay type: functional, organism-based; conditions: Macaca fascicularis; Artery
[20] = Half life in cynomolgus monkey at 3 mg/kg, iv; assay type: ADME, organism-based, Macaca fascicularis; design: dose 3 mg/kg, route intravenous; conditions: in vivo
[21] = Clearance in cynomolgus monkey at 3 mg/kg, iv; assay type: ADME, organism-based, Macaca fascicularis; design: dose 3 mg/kg, route intravenous; conditions: in vivo
[22] = Cmax in cynomolgus monkey at 3 mg/kg, po; assay type: ADME, organism-based, Macaca fascicularis; design: dose 3 mg/kg, route oral; conditions: in vivo
[23] = system: Cynomolgus monkey; experiment: Cardiotoxicity in telemetered cynomolgus monkey assessed as change in QRS width at 1000 mg/kg, po administered as single dose measured up to 24 hrs; assay type: toxicity, organism-based, Macaca fascicularis; design: dose 1000 mg/kg, route oral; conditions: in vivo
[24] = system: Salmonella typhimurium; experiment: Mutagenic activity in Salmonella typhimurium in presence of S9 mixture; assay type: toxicity, organism-based; conditions: salmonella enterica subsp. enterica serovar typhimurium
[25] = biological target: Voltage-gated inwardly rectifying potassium channel KCNH2 (Homo sapiens, UniProt Q12809); experiment: Inhibition of human ERG at 100 uM
Voltage-gated inwardly rectifying potassium channel KCNH2, sequence (Q12809 whole entry): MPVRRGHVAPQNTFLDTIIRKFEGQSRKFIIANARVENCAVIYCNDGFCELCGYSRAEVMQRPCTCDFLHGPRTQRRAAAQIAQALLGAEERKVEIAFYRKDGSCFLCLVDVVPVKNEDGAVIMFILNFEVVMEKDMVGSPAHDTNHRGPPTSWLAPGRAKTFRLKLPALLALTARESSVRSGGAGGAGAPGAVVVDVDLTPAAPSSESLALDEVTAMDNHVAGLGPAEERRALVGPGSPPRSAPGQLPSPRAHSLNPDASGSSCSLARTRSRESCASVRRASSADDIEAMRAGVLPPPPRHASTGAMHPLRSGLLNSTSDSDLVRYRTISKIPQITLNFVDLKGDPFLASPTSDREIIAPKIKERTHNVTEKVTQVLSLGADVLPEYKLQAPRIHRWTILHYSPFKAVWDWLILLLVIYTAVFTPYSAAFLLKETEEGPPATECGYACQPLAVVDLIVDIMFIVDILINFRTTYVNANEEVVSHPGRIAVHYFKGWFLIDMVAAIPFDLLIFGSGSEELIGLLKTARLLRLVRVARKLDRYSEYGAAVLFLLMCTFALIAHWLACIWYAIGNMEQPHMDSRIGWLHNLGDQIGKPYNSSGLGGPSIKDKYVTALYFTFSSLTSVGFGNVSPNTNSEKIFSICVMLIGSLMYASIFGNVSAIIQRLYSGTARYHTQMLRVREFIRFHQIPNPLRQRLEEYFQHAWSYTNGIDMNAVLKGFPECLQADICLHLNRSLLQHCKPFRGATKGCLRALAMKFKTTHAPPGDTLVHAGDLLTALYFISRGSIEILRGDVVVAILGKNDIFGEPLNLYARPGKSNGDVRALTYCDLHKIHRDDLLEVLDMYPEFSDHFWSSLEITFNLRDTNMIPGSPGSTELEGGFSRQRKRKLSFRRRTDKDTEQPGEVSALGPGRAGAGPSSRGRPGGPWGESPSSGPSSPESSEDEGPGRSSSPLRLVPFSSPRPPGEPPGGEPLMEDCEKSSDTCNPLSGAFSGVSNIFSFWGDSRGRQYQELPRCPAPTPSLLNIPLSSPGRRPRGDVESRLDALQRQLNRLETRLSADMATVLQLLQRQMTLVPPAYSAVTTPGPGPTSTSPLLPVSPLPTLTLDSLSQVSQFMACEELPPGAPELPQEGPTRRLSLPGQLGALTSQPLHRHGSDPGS

[26] = Oral bioavailability in cynomolgus monkey at 10 mg/kg; assay type: ADME, organism-based, Macaca fascicularis; conditions: in vivo
[27] = biological target: T3, Renin (Homo sapiens, UniProt P00797); experiment: Inhibition of human recombinant renin compound treated for 10 mins before substrate addition measured after 90 mins by fluorescence method
T3 sequence (P00797 whole entry): T1 sequence (Q6DLS0 whole entry) with A68T, L214I, A235S

[28] = system: Cynomolgus monkey; experiment: Ex vivo inhibition of plasma renin activity in cynomolgus monkey at 3 to 10mg/kg, po administered after furosemide treatment measured after 24 hrs relative to aliskiren hemifumarate; assay type: functional, Macaca fascicularis
[29] = system: Cynomolgus monkey; experiment: Ex vivo inhibition of plasma renin activity in cynomolgus monkey at 3 mg/kg, po administered after furosemide treatment measured after 24 hrs; assay type: functional; conditions: Macaca fascicularis
[30] = biological target: T3, Renin; experiment: Inhibition of human plasma renin activity after 60 mins by competitive RIA
[31] = system: Cynomolgus monkey; experiment: Ex vivo inhibition of plasma renin activity in cynomolgus monkey at 10 mg/kg, po administered after furosemide treatment measured after 24 hrs; assay type: functional; conditions: Macaca fascicularis
[32] = system: Salmonella typhimurium; experiment: Mutagenic activity in Salmonella typhimurium; assay type: toxicity, organism-based; conditions: salmonella enterica subsp. enterica serovar typhimurium
[33] = biological target: Cathepsin D (Homo sapiens, UniProt P07339); experiment: Inhibition of human cathepsin D
Cathepsin D, sequence (P07339 65-162 limits assumed): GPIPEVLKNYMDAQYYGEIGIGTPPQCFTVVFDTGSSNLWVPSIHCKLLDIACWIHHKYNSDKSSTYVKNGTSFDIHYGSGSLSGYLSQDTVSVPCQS
Cathepsin D, sequence (P07339 169-412 limits assumed): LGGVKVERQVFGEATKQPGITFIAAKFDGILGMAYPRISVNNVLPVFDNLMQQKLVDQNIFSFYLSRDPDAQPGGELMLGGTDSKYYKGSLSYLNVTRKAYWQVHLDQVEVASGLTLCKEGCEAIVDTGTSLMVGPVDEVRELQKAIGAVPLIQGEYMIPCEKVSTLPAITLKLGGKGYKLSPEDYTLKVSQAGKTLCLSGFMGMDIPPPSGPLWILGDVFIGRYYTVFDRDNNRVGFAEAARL

half-life [2]: 5.4 h
IC50 [3]: > 10000 nM
Tmax [4]: 2.3 h
AUC(0-t) [6]: 685 ng·h/mL
IC50 [7]: 6.3 nM
AUC(0-t) [8]: 15500 ng·h/mL
IC50 [9]: > 10000 nM
Tmax [10]: 3 h
bioavailability [11]: 4.1%
IC50 [13]: > 10000 nM
half-life [14]: 5.1 h
AUC(0-t) [15]: 2880 ng·h/mL
IC50 [16]: > 10000 nM
Cmax [17]: 399 ng/mL
Vd [18]: 1.12 L/kg
half-life [20]: 7.8 h
clearance [21]: 3.59 mL/min/kg
Cmax [22]: 102 ng/mL
bioavailability [26]: 5.3%
IC50 [27]: 0.9 nM
IC50 [30]: 1.9 nM
IC50 [33]: > 10000 nM
SMILES: CC[C@H](C[C@H](O)[C@@H](N)CN1CC(=O)N(c2ccccc2Cl)CC1(C)C)C(=O)NC1C2CC3CC1CC(O)(C3)C2.O.O=C(O)/C=C/C(=O)O (stereo partly drawn)
inhibition [1]: Dose-dependent effect
Activity [5]: Non-toxic
inhibition (INH) [12]: Not Active
Activity [19]: Dose-dependent effect
Activity [23]: Non-toxic
Activity [24]: Non-toxic
inhibition (INH) [25]: Not Active
Ratio [28]: 3
inhibition in vivo at 3 mg/kg [29]: 65%
inhibition in vivo at 10 mg/kg [31]: 65%
Activity [32]: Non-toxic
